Bounds are passed on as bounds.

For the assay, the target named is PIK3CG (human) (UniProt P48736). Description: Inhibition of PIK3CG Kinase Assay.
Chain of PIK3CG (human) (P48736 whole entry, looked up): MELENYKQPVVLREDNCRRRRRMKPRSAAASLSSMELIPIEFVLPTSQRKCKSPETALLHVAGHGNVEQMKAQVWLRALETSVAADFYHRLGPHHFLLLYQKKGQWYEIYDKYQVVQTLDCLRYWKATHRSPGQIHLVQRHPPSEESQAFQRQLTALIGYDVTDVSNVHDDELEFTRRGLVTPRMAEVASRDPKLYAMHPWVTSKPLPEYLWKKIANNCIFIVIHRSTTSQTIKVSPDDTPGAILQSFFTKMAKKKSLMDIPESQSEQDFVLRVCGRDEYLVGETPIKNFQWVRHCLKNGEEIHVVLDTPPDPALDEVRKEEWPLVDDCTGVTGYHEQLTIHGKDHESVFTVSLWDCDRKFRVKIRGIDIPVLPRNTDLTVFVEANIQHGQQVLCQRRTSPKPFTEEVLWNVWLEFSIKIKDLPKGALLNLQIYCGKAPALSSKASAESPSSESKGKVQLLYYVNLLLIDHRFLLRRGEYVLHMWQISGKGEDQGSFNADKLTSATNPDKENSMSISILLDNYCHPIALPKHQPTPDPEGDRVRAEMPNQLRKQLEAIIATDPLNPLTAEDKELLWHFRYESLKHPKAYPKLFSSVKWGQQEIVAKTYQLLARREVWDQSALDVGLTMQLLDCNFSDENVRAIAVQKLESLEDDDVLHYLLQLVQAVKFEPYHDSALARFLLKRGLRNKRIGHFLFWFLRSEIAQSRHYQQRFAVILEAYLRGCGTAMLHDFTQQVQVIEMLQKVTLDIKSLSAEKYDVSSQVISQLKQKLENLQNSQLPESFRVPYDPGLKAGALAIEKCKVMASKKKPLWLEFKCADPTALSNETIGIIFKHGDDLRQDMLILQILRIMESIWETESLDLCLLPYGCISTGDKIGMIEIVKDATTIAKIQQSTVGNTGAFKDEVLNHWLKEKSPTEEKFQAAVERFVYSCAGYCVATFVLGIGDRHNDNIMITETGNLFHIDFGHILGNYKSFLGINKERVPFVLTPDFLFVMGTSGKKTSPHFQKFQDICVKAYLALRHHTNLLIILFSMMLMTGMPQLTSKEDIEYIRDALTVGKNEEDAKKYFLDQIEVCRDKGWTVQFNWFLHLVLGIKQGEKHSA
The compound `Cn1cccc1C(=O)NC1=Nc2ccccc2C2=NCCN12` showed an IC50 of 500 to 2000 nM.
Then `Cc1ccc2c(c1)N=C(/C=C(\O)c1cccnc1)N1CCN=C21`, with 100 to 500 nM; and `CCOC(=O)c1cc(C(=O)NC2=Nc3ccccc3C3=NCCN23)cc(C(=O)OCC)c1`, with greater than 2000 nM; and `O/C(=C\C1=Nc2cc(CN3CCOCC3)ccc2C2=NCCN12)c1cccnc1`, with 100 to 500 nM.
In the case of `Cc1cnc(C(=O)NC2=Nc3ccccc3C3=NCCN23)cn1`, the IC50 is 500 to 2000 nM.
Then `O/C(=C\C1=Nc2ccccc2C2=NCCN12)c1cnccn1`, with 100 to 500 nM; and `COc1cc2c(cc1OC)C1=NCCN1C(NC(=O)c1ccc3[nH]cnc3c1)=N2`, with no more than 100 nM.
In turn, `COc1cc2c(cc1OC)C1=NCCN1C(/C=C(\O)c1ccc3[nH]cnc3c1)=N2` showed a 50% inhibitory concentration (IC50) of no more than 100 nM.
`O=C(NC1=Nc2ccccc2C2=NCCN12)c1ccc(-n2cccn2)cc1`: the 50% inhibitory concentration (IC50) is greater than 2000 nM.
Compound `O/C(=C\C1=Nc2cc(Cl)ccc2C2=NCCN12)c1cccnc1` registered a half-inhibitory concentration (IC50) of 100 to 500 nM.
Then `O/C(=C\C1=Nc2c(Br)cccc2C2=NCCN12)c1cccnc1`, with 100 to 500 nM; and `O=C(NC1=Nc2ccccc2C2=NCCN12)c1ccco1`, with 500 to 2000 nM; and `O/C(=C\C1=Nc2c(CN3CCOCC3)cccc2C2=NCCN12)c1cccnc1`, with 100 to 500 nM.
In turn, `O=C(NC1=Nc2ccccc2C2=NCCN12)c1csc(-c2ccncc2)n1` yielded an IC50 greater than 2000 nM.
For `O/C(=C\C1=Nc2c(OCCN3CCOCC3)cccc2C2=NCCN12)c1cccnc1`, the concentration for half-maximal inhibition (IC50) was 100 to 500 nM.
The result for `O=C(NC1=Nc2ccccc2C2=NCCN12)c1cncc(O)c1` reads no more than 100 nM; that for `Cc1ccc2c(c1)N=C(NC(=O)c1cccnc1)N1CCN=C21`, no more than 100 nM; that for `Nc1ccc(C(=O)NC2=Nc3ccccc3C3=NCCN23)cn1`, no more than 100 nM.
The result for `COc1ccc2c(c1OCCN1CCOCC1)N=C(/C=C(\O)c1cccnc1)N1CCN=C21` reads no more than 100 nM.
Consider `COc1c(OCCO)ccc2c1N=C(/C=C(\O)c1cccnc1)N1CCN=C21`, for which the IC50 was no more than 100 nM.
Take `COc1cc(OC)c2c(c1)C1=NCCN1C(/C=C(\O)c1cccnc1)=N2`: the concentration for half-maximal inhibition (IC50) is no more than 100 nM.
Then `O=C(NC1=Nc2cc(N3CCCCC3)ccc2C2=NCCN12)c1cccnc1`, with 100 to 500 nM; and `O/C(=C\C1=Nc2cc(-c3ccccc3)ccc2C2=NCCN12)c1cccnc1`, with 100 to 500 nM.
Regarding `COc1c(OCC(=O)N2CCOCC2)ccc2c1N=C(/C=C(\O)c1cccnc1)N1CCN=C21`, the half-maximal inhibitory concentration (IC50) is no more than 100 nM.
Compound `O=C(NC1=Nc2cc(OCC(=O)N3CCOCC3)ccc2C2=NCCN12)c1cccnc1` had a 50% inhibitory concentration (IC50) of 100 to 500 nM.
Take `COc1ccc2c(c1OC)N=C(NC(=O)c1cnc3[nH]cnc3c1)N1CCN=C21`: the 50% inhibitory concentration (IC50) was no more than 100 nM.
The result for `COc1cc(OC)c2c(c1)C1=NCCN1C(NC(=O)c1ccc3[nH]cnc3c1)=N2` reads no more than 100 nM; that for `O=C(NC1=Nc2ccccc2C2=NCCN12)c1ccc(Cl)nc1`, 500 to 2000 nM.
`Cc1ccc(C(=O)NC2=Nc3ccccc3C3=NCCN23)cn1` had an IC50 of no more than 100 nM.
For `CC(=O)NC1CCN(c2ccc3c(c2)N=C(/C=C(\O)c2cccnc2)N2CCN=C32)C1` (configuration not stated), the IC50 was no more than 100 nM.
As to `O/C(=C\C1=Nc2ccccc2C2=NCCN12)c1cccnc1`, the half-inhibitory concentration (IC50) lay within 100 to 500 nM.
The result for `COc1ccc2c(c1)N=C(NC(=O)c1ccc(N)nc1)N1CCN=C21` reads no more than 100 nM; that for `Cc1ccc2c(c1OCCN1CCOCC1)N=C(/C=C(\O)c1cccnc1)N1CCN=C21`, 100 to 500 nM; that for `COc1cc2c(cc1OC)C1=NCCN1C(NC(=O)c1cncc(O)c1)=N2`, no more than 100 nM.
In the case of `O=C(NC1=Nc2ccccc2C2=NCCN12)c1c[nH]cn1`, the half-inhibitory concentration (IC50) was 100 to 500 nM.
As to `O/C(=C\C1=Nc2cc(N3CCOCC3)ccc2C2=NCCN12)c1cncc(O)c1`, the IC50 is no more than 100 nM.
Then `O=C(NC1=Nc2cc(OCCOCCO)ccc2C2=NCCN12)c1cccnc1`, with 100 to 500 nM; and `Cc1cccc2c1N=C(NC(=O)c1cccnc1)N1CCN=C21`, with 100 to 500 nM.
`NS(=O)(=O)c1ccc(C(=O)NC2=Nc3ccccc3C3=NCCN23)cc1`: the IC50 fell in the range of 500 to 2000 nM.
In the case of `COc1cc2c(c(OC)c1C)N=C(NC(=O)c1cccnc1C)N1CCN=C21`, the concentration for half-maximal inhibition (IC50) is no more than 100 nM.
For the compound `O=C(NC1=Nc2cc(OCCO)ccc2C2=NCCN12)c1cccnc1`, the IC50 fell in the range of 100 to 500 nM.
As to `O/C(=C\C1=Nc2ccccc2C2=NCCN12)c1ccncc1`, the IC50 fell in the range of 100 to 500 nM.
`COc1cccc2c1N=C(NC(=O)c1cccnc1)N1CCN=C21` yielded a 50% inhibitory concentration (IC50) of no more than 100 nM.
Regarding `CC(=O)Nc1ccc(/C(O)=C/C2=Nc3cc(N4CCOCC4)ccc3C3=NCCN23)cn1`, the IC50 was no more than 100 nM.
On to `O=C(NC1=Nc2ccccc2C2=NCCN12)c1cnccn1`, for which the IC50 was in the range of 500 to 2000 nM.
The compound `O/C(=C\C1=Nc2cc(N3CCN(Cc4ccccc4)CC3)ccc2C2=NCCN12)c1cccnc1` came in with an IC50 of 100 to 500 nM.
`COc1ccc2c(c1Br)N=C(NC(=O)c1cccnc1)N1CCN=C21` yielded an IC50 of no more than 100 nM.
Then `O=C(NC1=Nc2ccccc2C2=NCCN12)c1ccc([N+](=O)[O-])cc1`, with greater than 2000 nM; and `O=C(NC1=Nc2ccccc2C2=NCCN12)c1ccncc1`, with 500 to 2000 nM; and `COc1cncc(C(=O)NC2=Nc3ccccc3C3=NCCN23)c1`, with 100 to 500 nM.
As to `CN(C)C=Nc1cncc(C(=O)NC2=Nc3ccccc3C3=NCCN23)c1`, the concentration for half-maximal inhibition (IC50) fell in the range of 100 to 500 nM.
In turn, `COc1cccc2c1N=C(NC(=O)c1ccc3[nH]cnc3c1)N1CCN=C21` showed an IC50 of no more than 100 nM.
For `COc1cc2c(cc1OC)C1=NCCN1C(NC(=O)c1ccc(NC(C)=O)nc1)=N2`, the 50% inhibitory concentration (IC50) lay within 100 to 500 nM.
On to `CC(=O)Nc1ccc(C(=O)NC2=Nc3cc(N4CCOCC4)ccc3C3=NCCN23)cc1`, for which the IC50 was 100 to 500 nM.
Then `COc1cccc2c1N=C(NC(=O)c1cccnc1Cl)N1CCN=C21`, with no more than 100 nM; and `CC(=O)Nc1ccc(/C(O)=C/C2=Nc3c(CN4CCOCC4)cccc3C3=NCCN23)cn1`, with 100 to 500 nM.
In turn, `Cc1cccc2c1N=C(/C=C(\O)c1cccnc1)N1CCN=C21` yielded an IC50 of 100 to 500 nM.
With `O=C(NC1=Nc2ccccc2C2=NCCN12)c1csc([N+](=O)[O-])c1`, the concentration for half-maximal inhibition (IC50) was greater than 2000 nM.
The result for `O=C(NC1=Nc2ccccc2C2=NCCN12)c1ccsc1` reads 100 to 500 nM.
For the compound `COc1cccc2c1N=C(/C=C(\O)c1cccnc1)N1CCN=C21`, the IC50 is no more than 100 nM.
`Cc1ccc(/C(O)=C/C2=Nc3ccccc3C3=NCCN23)cn1` displayed a half-inhibitory concentration (IC50) of 100 to 500 nM.
`Cc1cc(C(=O)NC2=Nc3ccccc3C3=NCCN23)cc(C)c1[N+](=O)[O-]`: the IC50 is greater than 2000 nM.
Then `COc1c(C)cc(C(=O)NC2=Nc3ccccc3C3=NCCN23)cc1C`, with greater than 2000 nM; and `Cc1cccc2c1N=C(NC(=O)c1ccc3[nH]cnc3c1)N1CCN=C21`, with no more than 100 nM; and `O=C(NC1=Nc2ccccc2C2=NCCN12)c1ccc(-n2cccc2)cc1`, with greater than 2000 nM.
On to `O/C(=C\C1=Nc2ccccc2C2=NCCN12)c1ccco1`, for which the 50% inhibitory concentration (IC50) was 100 to 500 nM.
The result for `COc1cc2c(c(OC)c1C)N=C(/C=C(\O)c1ccc(NC(C)=O)nc1)N1CCN=C21` reads no more than 100 nM; that for `CC(=O)Nc1ccc(/C(O)=C/C2=Nc3c(C)cccc3C3=NCCN23)cn1`, no more than 100 nM.
Then `O=C(NC1=Nc2ccc(F)cc2C2=NCCN12)c1cccs1`, with 500 to 2000 nM.
For the compound `O/C(=C\C1=Nc2ccccc2C2=NCCN12)c1cccs1`, the half-inhibitory concentration (IC50) was no more than 100 nM.
`O/C(=C\C1=Nc2c(OCC3CC3)cccc2C2=NCCN12)c1cccnc1` came in with a 50% inhibitory concentration (IC50) of 100 to 500 nM.
The compound `O/C(=C\C1=Nc2ccc(Cl)cc2C2=NCCN12)c1cccnc1` had an IC50 of 100 to 500 nM.
As for `O=C(NC1=Nc2cc(Cl)ccc2C2=NCCN12)c1ccc2[nH]cnc2c1`, the IC50 was no more than 100 nM.
In turn, `O/C(=C\C1=Nc2cc(N3CCOCC3)ccc2C2=NCCN12)c1ccc2[nH]cnc2c1` had a half-maximal inhibitory concentration (IC50) of no more than 100 nM.
For `O=C(NC1=Nc2c(F)cccc2C2=NCCN12)c1ccc2[nH]cnc2c1`, the 50% inhibitory concentration (IC50) is no more than 100 nM.
Then `O=C(NC1=Nc2ccccc2C2=NCCN12)c1ccccn1`, with 500 to 2000 nM; and `O/C(=C\C1=Nc2ccccc2C2=NCCN12)c1ccccn1`, with 500 to 2000 nM.
`CN(C=O)c1ccc(C(=O)NC2=Nc3ccccc3C3=NCCN23)cc1` came in with an IC50 greater than 2000 nM.
The result for `COc1c(OCc2nn[nH]n2)ccc2c1N=C(/C=C(\O)c1cccnc1)N1CCN=C21` reads no more than 100 nM.
Regarding `COc1ccc2c(c1OC)N=C(NC(=O)c1ccc3[nH]cnc3c1)N1CCN=C21`, the half-inhibitory concentration (IC50) was no more than 100 nM.
Regarding `O=C(NC1=Nc2ccccc2C2=NCCN12)c1ccc([N+](=O)[O-])s1`, the half-inhibitory concentration (IC50) is greater than 2000 nM.
`COc1c(OCC(N)=O)ccc2c1N=C(/C=C(\O)c1cccnc1)N1CCN=C21` had an IC50 of no more than 100 nM.
On to `Cc1cc(C(=O)NC2=Nc3ccccc3C3=NCCN23)cnc1N`, for which the half-maximal inhibitory concentration (IC50) is 100 to 500 nM.
Then `O=C(NC1=Nc2ccccc2C2=NCCN12)c1csc(-c2cccnc2)n1`, with greater than 2000 nM; and `O/C(=C\C1=Nc2ccccc2C2=NCCN12)c1ccno1`, with 100 to 500 nM.
The result for `CC(=O)Nc1ccc(/C(O)=C/C2=Nc3cc(N4CCN(C)CC4)ccc3C3=NCCN23)cn1` reads 100 to 500 nM; that for `COc1c(C)ccc2c1N=C(/C=C(\O)c1ccc3[nH]cnc3c1)N1CCN=C21`, no more than 100 nM.
With `NS(=O)(=O)c1ccc(C(=O)NC2=Nc3ccccc3C3=NCCN23)c(Cl)c1`, the IC50 is greater than 2000 nM.
In turn, `Cc1ccc(C(=O)NC2=Nc3cc(N4CCOCC4)ccc3C3=NCCN23)cn1` gave an IC50 of no more than 100 nM.
Then `COc1cc2c(c(OC)c1C)N=C(/C=C(\O)c1ccc3[nH]cnc3c1)N1CCN=C21`, with 100 to 500 nM.
Turning to `CN(C)c1cccc(C(=O)NC2=Nc3ccccc3C3=NCCN23)c1`, the 50% inhibitory concentration (IC50) was greater than 2000 nM.
Turning to `COc1cc2c(cc1OC)C1=NCCN1C(/C=C(\O)c1cccs1)=N2`, the half-inhibitory concentration (IC50) is 100 to 500 nM.
Compound `Cc1cc(Br)c2c(c1)C1=NCCN1C(/C=C(\O)c1ccc3[nH]cnc3c1)=N2` yielded a 50% inhibitory concentration (IC50) of 100 to 500 nM.
The result for `COc1cc(C(=O)NC2=Nc3ccccc3C3=NCCN23)cc(OC)c1C` reads greater than 2000 nM; that for `O=C(NC1=Nc2ccccc2C2=NCCN12)c1cnc2[nH]cnc2c1`, no more than 100 nM; that for `CSc1ccc(C(=O)NC2=Nc3ccccc3C3=NCCN23)cc1`, greater than 2000 nM.
`O/C(=C\C1=Nc2ccccc2C2=NCCN12)c1csc2ccccc12` showed an IC50 greater than 2000 nM.

For the origin of these results see the Kinase Knowledgebase extract (Sharma et al. 2016).
